≈ marks a conversion by molar mass, not a printed value.
Tests used:
[1] = Human microsomal stability assay; format: in vitro ADME; conditions: human liver microsomes 0.5 mg/mL, 37° C., pH 7.4, NADPH regenerating system, 0-30 minutes
Experimental: Human Microsomal Stability Assay
Human liver microsomes (Cat. NO.: 452117, Corning, USA) were preincubated with test compound for 10 minutes at 37° C. in 100 mM potassium phosphate buffer, pH 7.4. The reactions were initiated by adding NADPH regenerating system. The final incubation mixtures contained […] test compound, 0.5 mg/mL liver microsomal protein, 1 mM MgCl2, 1 mM NADP, 1 unit/mL isocitric dehydrogenase and 6 mM isocitric acid in 100 mM potassium phosphate buffer, pH 7.4. After incubation times of 0, 3, 6, 9, 15 and 30 minutes at 37° C., 300 μL of cold ACN (including internal standard) was added to 100 μL incubation mixture to terminate the reaction. Following precipitation and centrifugation, 100 μL supernatant will be taken out and added 300 uL water. The amount of compound remaining in the samples was determined by LC-MS/MS. Controls of no NADPH regenerating system at zero and 30 minutes were also prepared and analyzed. The results were categorized as: low (<7.0 mLJmin/kg), medium (7.0-16.2 mL/min/kg) and high (16.2-23.2 mLJmin/kg).

[2] = tested on: Balb/c 3T3 mouse fibroblasts; assay: 3T3 in vitro phototoxicity assay; format: cell-based; conditions: Neutral Red uptake; for Phototoxicity factor: Factor=IC50(−UV)/IC50(+UV), cut-off factor >5; for IC50: Mus musculus, BALB/c3T3, light or radiation study, with approx. 5 J/cm2 UVA light
Excerpt: 3T3 In Vitro Phototoxicity Assay
Phototoxicity is defined as a toxic response that is elicited after the first exposure of the skin to certain chemicals and subsequent exposure to light, or that is induced similarly by skin irradiation after systemic administration of a chemical substance. The assay used in this study is designed to detect the phototoxic potential of a chemical by using a simple in vitro cytotoxicity assay with Balb/c 3T3 mouse fibroblasts. The principle of this test is a comparison of the cytotoxicity of a chemical when tested with and without exposure to a non-toxic dose of UVA-light. Cytotoxicity is expressed as a dose dependent reduction of the growth rate of cells as determined by uptake of the vital dye Neutral Red one day after treatment.
A small amount of substance was weighed and formulated freshly in DMSO just before the start of the exposure of the cells. This stock solution or appropriate dilutions with DMSO were added to the cell suspensions to obtain the required final concentrations. All solutions were generally prepared in Eppendorf caps and discarded after use.
For this study the Neutral Red uptake (NRU) assay of Borenfreund and Puemer (Borenfreund, E, Puemer J A. Toxicity determined in vitro by morphological alterations and Neutral Red absorption. Toxicology Lett. 1985; 24:119-124) modified according to INVITTOX protocol No 78 (ERGATT/FRAME data bank of in vitro techniques in toxicology. INVITTOX PROTOCOL No 78. 3T3 NRU Phototoxicity Assay. March 1994) has been adapted to examine a possible phototoxic potential of the test item. This assay is based on the active uptake of the Neutral Red dye into the lysosomes of cultured murine fibroblasts. Because lysosomal membranes are known to be a site of action of many phototoxic compounds, this assay can provide a measure of potential for phototoxic injury.
A murine fibroblasts clone A 31 (ATCC no. CCL 163—passage No. 108) were cultured in 175 cm2 tissue culture grade flasks, containing sDMEM (Dulbecco's Minimal Essential Medium, supplemented with 10% fetal calf serum, 2 mM L-glutamine, 100 units/ml Penicillin and 100 μg/ml streptomycin) at 37° C. in a humidified atmosphere of 6% C02. Before cells approach confluence they were removed from flasks by trypsinisation. Prior to use in an assay, the cells were transferred to 96-well microtiter plates at a concentration of 1×10^4 cells/well in 100 μl volumes of sDMEM and allowed to attach for 24 h.
For incubation with murine fibroblasts, the test item was diluted in PBS/3% DMSO (detailed concentrations see in results).
Culture medium (Dulbecco's Modified Eagle Medium (DMEM), GlutaMAX (Gibco Ref 21885-025), 10% Fetal Bovine Serum (FBS) (Gibco Ref 10270-106), 100 IU/ml Penicillin and 100 μg/ml Streptomycin (Gibco Ref 15140-122)) was removed from the wells and murine fibroblasts were washed with PBS. Afterwards 100 μL of PBS/3% DMSO containing the test item was added and target cells were incubated for 1 h at 37° C. with 6% CO2.
For each test item the microtiter plates were prepared according to Table 4. “UVA plates” were exposed to approx. 5 J/cm2 UVA light, the “Dark plates” were kept in the dark and served as cytotoxicity control. Plates with chlorpromazine hydrochloride served as positive control. UV flux was measured with a UV-meter (Dr. Gröbel RM21).
Following UV irradiation, the test item was removed from the wells (one washing step with PBS) and replaced with sDMEM. Target cells were then incubated overnight at 37° C. in 6% CO2.
Each plate contained wells with cells and solvent but without test item which were either not incubated with Neutral Red solution (0% standard—S1) or were stained with Neutral Red (100% standard—S2) for calculation of the standard cell viability curve. Wells labeled with U01-U08 contained the different test item concentrations.
After the incubation the wells to be assayed were filled with 100 μL of the sDMEM containing Neutral Red. […]

Row | Compound | CL (h) [1] | Phototoxicity factor [2] | IC50 [2]
1 | C[C@@H]1CN(c2ccc(C#N)c3ncccc23)C[C@@H]2c3ccc(N[C@H]4CNC[C@H]4F)cc3CN12 [Example 30, 5-[(4R,10bS)-8-[[(3S,4R)-4-fluoropyrrolidin-3-yl]amino]-4-methyl-3,4,6,10b-tetrahydro-1H-pyrazino[2,1-a]isoindol-2-yl]quinoline-8-carbonitrile] | 8.8 mL/min/kg | >1.9 | 54.6 µg/mL (≈ 123 µM)
2 | CO[C@@H]1CN(c2ccc3c(c2)CN2[C@H](C)CN(c4ccc(C#N)n5nccc45)C[C@H]32)C[C@H]1N [Example 94, 4-[(4R,10bS)-8-[(3R,4R)-3-amino-4-methoxy-pyrrolidin-1-yl]-4-methyl-3,4,6,10b-tetrahydro-1H-pyrazino[2,1-a]isoindol-2-yl]pyrazolo[1,5-a]pyridine-7-carbonitrile] |  | 1.99 | 39 µg/mL (≈ 87.9 µM)
3 | C[C@@H]1CN(c2ccc(C#N)c3ncccc23)C[C@@H]2c3ccc(N4CC(C)(N)C4)cc3CN12 [Example 39, 5-[(4R,10bS)-8-(3-amino-3-methyl-azetidin-1-yl)-4-methyl-3,4,6,10b-tetrahydro-1H-pyrazino[2,1-a]isoindol-2-yl]quinoline-8-carbonitrile] | 6.2 mL/min/kg | 1.00 | > 100 µg/mL
4 | C[C@@H]1CN(c2ccc(C#N)n3ncc(F)c23)C[C@@H]2c3ccc(N4C[C@H](N)[C@@](C)(O)C4)cc3CN12 [Example 112, 4-[(4R,10bS)-8-[(3S,4S)-4-amino-3-hydroxy-3-methyl-pyrrolidin-1-yl]-4-methyl-3,4,6,10b-tetrahydro-1H-pyrazino[2,1-a]isoindol-2-yl]-3-fluoro-pyrazolo[1,5-a]pyridine-7-carbonitrile] | 8.6 mL/min/kg |  | 
5 | C[C@@H]1CN(c2ccc(C#N)c3ncccc23)C[C@@H]2c3ccc(N4CCNC[C@H]4CO)cc3CN12 [Example 11, 5-[(4R,10S)-8-[(2S)-2-(hydroxymethyl)piperazin-1-yl]-4-methyl-3,4,6,10b-tetrahydro-1H-pyrazino[2,1-a]isoindol-2-yl]quinoline-8-carbonitrile] | 6.2 mL/min/kg |  | 
6 | C[C@@H]1CN(c2ccc(C#N)c3ncccc23)C[C@@H]2c3ccc(OCCN(C)C)cc3CN12 [Example 25, 5-[(4R,10bS)-8-[2-(dimethylamino)ethoxy]-4-methyl-3,4,6,10b-tetrahydro-1H-pyrazino[2,1-a]isoindol-2-yl]quinoline-8-carbonitrile] | 8.0 mL/min/kg |  | 
7 | C[C@@H]1CN(c2ccc(C#N)c3ncccc23)CC2c3ccc(N4C[C@H](N)[C@@H](O)C4)cc3CN21 (relative stereo) [Example 21, 5-[(4R,10bS)-8-[trans-3-amino-4-hydroxy-pyrrolidin-1-yl]-4-methyl-3,4,6,10b-tetrahydro-1H-pyrazino[2,1-a]isoindol-2-yl]quinoline-8-carbonitrile] | 6.2 mL/min/kg |  | 
8 | C[C@@H]1CN(c2ccc(C#N)c3ncccc23)C[C@@H]2c3ccc(N4CCOC[C@H](N)C4)cc3CN12 [Example 54A, 5-[(4R,10bS)-8-[(6R)-6-amino-1,4-oxazepan-4-yl]-4-methyl-3,4,6,10b-tetrahydro-1H-pyrazino[2,1-a]isoindol-2-yl]quinoline-8-carbonitrile] | 7.5 mL/min/kg |  | 
9 | C[C@@H]1CN(c2ccc(C#N)c3nccnc23)C[C@@H]2c3ccc(N4CCNCC4)cc3CN12 [Example 7, 8-[(4R,10bS)-4-methyl-8-piperazin-1-yl-3,4,6,10b-tetrahydro-1H-pyrazino[2,1-a]isoindol-2-yl]quinoxaline-5-carbonitrile] | 7.8 mL/min/kg |  | 
10 | C[C@@H]1CN(c2ccc(C#N)c3ncccc23)C[C@@H]2c3ccc(N4C[C@H](N)[C@@H](O)C4)cc3CN12 [Example 40A, 5-[(4R,10bS)-8-[(3S,4S)-3-amino-4-hydroxy-pyrrolidin-1-yl]-4-methyl-3,4,6,10b-tetrahydro-1H-pyrazino[2,1-a]isoindol-2-yl]quinoline-8-carbonitrile] | 7.0 mL/min/kg |  | 
11 | CO[C@H]1CN(c2ccc3c(c2)CN2C3CN(c3ccc(C#N)c4ncccc34)C[C@H]2C)C[C@@H]1N (single isomer, unassigned) [Example 16A] | 8.5 mL/min/kg |  | 
12 | C[C@@H]1CN(c2ccc(C#N)c3ncccc23)C[C@@H]2c3ccc(N4C[C@@H](N)[C@](C)(O)C4)cc3CN12 [Example 45A, 5-[(4R,10bS)-8-[(3R,4R)-4-amino-3-hydroxy-3-methyl-pyrrolidin-1-yl]-4-methyl-3,4,6,10b-tetrahydro-1H-pyrazino[2,1-a]isoindol-2-yl]quinoline-8-carbonitrile] | 6.2 mL/min/kg |  | 
13 | N#Cc1ccc(N2CCN3Cc4cc(N5CCNCC5)ccc4C3C2)c2scnc12 (stereo not shown) [Example 4, 7-(8-piperazin-1-yl-3,4,6,10b-tetrahydro-1H-pyrazino[2,1-a]isoindol-2-yl)-1,3-benzothiazole-4-carbonitrile] | 6.2 mL/min/kg |  | 
14 | C[C@@H]1CN(c2ccc(C#N)c3ncccc23)C[C@@H]2c3ccc(N[C@@H]4CNC[C@@H]4F)cc3CN12 [Example 32, 5-[(4R,10bS)-8-[[(3R,4S)-4-fluoropyrrolidin-3-yl]amino]-4-methyl-3,4,6,10b-tetrahydro-1H-pyrazino[2,1-a]isoindol-2-yl]quinoline-8-carbonitrile] | 8.7 mL/min/kg |  | 
15 | [2H]c1ccc2c(N3C[C@@H](C)N4Cc5cc(N6CC(C)(N)C6)ccc5[C@H]4C3)ccc(C#N)c2n1 [Example 92, 5-[(4R,10bS)-8-(3-amino-3-methyl-azetidin-1-yl)-4-methyl-3,4,6,10b-tetrahydro-1H-pyrazino[2,1-a]isoindol-2-yl]-2-deuterio-quinoline-8-carbonitrile] | 6.4 mL/min/kg |  | 
16 | C[C@@H]1CN(c2ccc(C#N)c3ncccc23)C[C@@H]2c3ccc(NCCN(C)C)cc3CN12 [Example 26, 5-[(4R,10bS)-8-[2-(dimethylamino)ethylamino]-4-methyl-3,4,6,10b-tetrahydro-1H-pyrazino[2,1-a]isoindol-2-yl]quinoline-8-carbonitrile] | 6.2 mL/min/kg |  | 
17 | CO[C@@H]1CN(c2ccc3c(c2)CN2[C@H](C)CN(c4ccc(C#N)n5nccc45)C[C@H]32)CC[C@H]1N [Example 104, 4-[(4R,10bS)-8-[(3R,4R)-4-amino-3-methoxy-1-piperidyl]-4-methyl-3,4,6,10b-tetrahydro-1H-pyrazino[2,1-a]isoindol-2-yl]pyrazolo[1,5-a]pyridine-7-carbonitrile] | 7.0 mL/min/kg |  | 
